Data as given in patent publication US6958358B2, “Inhibitors of cruzipain and other cysteine proteases” (Amura Therapeutics Limited, priority 2001, dated 2005).

Assays:
Bovine Cathepsin S = target: T1, Bovine Cathepsin S (Bos taurus, UniProt P25326); assay: Cathepsin peptidase activity assay, bovine cathepsin S; type: biochemical; conditions: pH 6.5; boc-Val-Leu-Lys-AMC; 25±1° C.
T1 construct: purchased CN Biosciences
Procedure: (§1) Assay protocols were based on literature precedent (Table1; Barrett, A. J., Rawlings, N. D. and Woessner, J. F., 1998, Handbook of Proteolytic Enzymes, Academic Press, London and references therein) and modified as required to suit local assay protocols. Enzyme was added as required to initiate the reaction and the activity, as judged by the change in fluorescence upon conversion of substrate to product, was monitored over time. All assays were carried out at 25±1° C.
(§2) Bovine cathepsin S, human cathepsin L, human cathepsin H and human cathepsin B were obtained from CN Biosciences. Recombinant human cathepsin S, human cathepsin K and human cathepsin X were obtained from Dr. Boris Turk (Josef Stefan Institute, Ljubljana, Slovenia). Unless otherwise stated, all peptidase activity assays were carried out in 10 mM bis-tris-propane (BTP), pH 6.5 containing 1 mM […], 5 mM 2-mercaptoethanol and 1 mM CaCl2. Human cathepsin H activity assays were carried out in 10 mM BTP pH 6.5, 142 mM […], 1 mM CaCl2, 1 mM EDTA, 1 mM DTT, 0.035 mM Zwittergent 3-16. […] The rate of conversion of substrate to product was derived from the slope of the increase in fluorescence monitored continuously over time.
(§3) The apparent inhibition constant (Ki) for each compound was determined on the basis that inhibition was reversible and occurred by a pure-competitive mechanism. The Ki values were calculated, from the dependence of enzyme activity as a function of inhibitor concentration, by direct regression analysis (Prism v 3.02) using Equation 2 (Cornish-Bowden, A., 1995.). […]
(§4) In situations where the apparent dissociation constant (Ki^app) approached the enzyme concentrations, the Ki^app values were calculated using a quadratic solution in the form described by Equation 3 (Morrison, J. F. Trends Biochem. Sci., 7, 102-105, 1982; Morrison, J. F. Biochim. Biophys. Acta, 185, 269-286, 1969; Stone, S. R. and Hofsteenge, J. Biochemistry, 25, 4622-4628, 1986). […]

Cruzipain = target: T2, Cruzipain (Trypanosoma cruzi, UniProt P25779); assay: Trypanosoma cruzi cruzipain peptidase activity assay; type: biochemical; conditions: wild-type cruzipain from T. cruzi Dm28 epimastigotes; pH 6.75; 25±1° C.
T2 construct: Wild-type cruzipain, derived from Trypanosoma cruzi Dm28 epimastigotes; tissue Dr. Julio Scharfstein (Instituto de Biofisica Carlos Chagas Filho, Universidade Federal do Rio de Janeiro); host or cells: Trypanosoma cruzi Dm28 epimastigotes
Procedure: as §1
Wild-type cruzipain, derived from Trypanosoma cruzi Dm28 epimastigotes, was obtained from Dr. Julio Scharfstein (Instituto de Biofisica Carlos Chagas Filho, Universidade Federal do Rio de Janeiro, Rio de Janeiro, Brazil). Activity assays were carried out in 100 mM sodium phosphate, pH 6.75 containing 1 mM EDTA and 10 mM L-cysteine using […] enzyme. Ac-Phe-Arg-AMC (KM^app≈12 μM) and D-Val-Leu-Lys-AMC (KM^app≈4 μM) were used as the substrates. Routinely, Ac-FR-AMC was used at a concentration equivalent to KM^app and D-Val-Leu-Lys-AMC was used at a concentration of 25 μM. The rate of conversion of substrate to product was derived from the slope of the increase in fluorescence monitored continuously over time.
as §3, with “1995.). [formula]” for “1995.).”
as §4

Human Cathepsin K = target: T3, Human Cathepsin K (Homo sapiens, UniProt P43235); assay: Cathepsin peptidase activity assay, human cathepsin K; type: biochemical; conditions: pH 5.5; Z-Leu-Arg-AMC; 25±1° C.
T3 construct: Dr. Boris Turk (Josef Stefan Institute, Ljubljana, Slovenia), obtained from an academic laboratory, not a commercial vendor
T3 sequence (P43235 115-329): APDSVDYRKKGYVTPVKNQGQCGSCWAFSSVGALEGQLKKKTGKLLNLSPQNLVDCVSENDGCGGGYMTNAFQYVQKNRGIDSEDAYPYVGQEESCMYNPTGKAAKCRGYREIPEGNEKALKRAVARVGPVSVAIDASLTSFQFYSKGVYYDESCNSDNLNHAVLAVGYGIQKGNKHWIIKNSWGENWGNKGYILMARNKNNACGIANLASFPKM
Procedure: as §1, §2, §3, §4

Human Cathepsin L = target: T4, Human Cathepsin L (Homo sapiens, UniProt P07711); assay: Cathepsin peptidase activity assay, human cathepsin L; type: biochemical; conditions: pH 6.5; Ac-Phe-Arg-AMC; 25±1° C.
T4 construct: purchased CN Biosciences
Procedure: as §1, §2, §3, §4

[1] = tested on: Trypanosoma cruzi infection; conditions: cited from earlier work
Trypanosoma cruzi = conditions: added to Trypanosoma cruzi-infected mammalian cell cultures; cited from earlier work

T2 sequence (P25779 123-467): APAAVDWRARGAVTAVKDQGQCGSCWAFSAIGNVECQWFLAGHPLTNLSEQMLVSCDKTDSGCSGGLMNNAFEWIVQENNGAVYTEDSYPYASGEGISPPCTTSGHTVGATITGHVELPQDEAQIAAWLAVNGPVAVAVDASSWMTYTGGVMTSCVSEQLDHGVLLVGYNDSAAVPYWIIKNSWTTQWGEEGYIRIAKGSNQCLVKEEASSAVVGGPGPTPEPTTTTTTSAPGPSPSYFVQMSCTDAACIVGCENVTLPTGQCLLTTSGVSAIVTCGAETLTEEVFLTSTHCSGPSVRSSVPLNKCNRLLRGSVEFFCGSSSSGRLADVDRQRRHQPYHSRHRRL
T4 sequence (P07711 114-333): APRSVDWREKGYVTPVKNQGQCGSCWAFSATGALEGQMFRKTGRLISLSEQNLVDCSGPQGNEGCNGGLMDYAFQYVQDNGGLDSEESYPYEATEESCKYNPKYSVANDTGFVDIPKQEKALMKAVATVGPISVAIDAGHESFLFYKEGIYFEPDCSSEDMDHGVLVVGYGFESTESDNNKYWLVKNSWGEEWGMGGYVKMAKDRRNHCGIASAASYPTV
T1 sequence (P25326 115-331): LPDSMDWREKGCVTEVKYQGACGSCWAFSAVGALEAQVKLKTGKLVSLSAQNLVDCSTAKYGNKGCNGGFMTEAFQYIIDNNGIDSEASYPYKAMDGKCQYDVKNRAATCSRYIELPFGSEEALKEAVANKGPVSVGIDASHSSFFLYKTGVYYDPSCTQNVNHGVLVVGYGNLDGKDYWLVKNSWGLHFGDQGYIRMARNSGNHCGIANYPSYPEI

Ki (Bovine Cathepsin S) [µM] | Ki (Cruzipain) [µM] | Ki (Human Cathepsin K) [µM] | Ki (Human Cathepsin L) [µM] | SMILES | cure during the acute phase of infection [1] [%] | effect on replication and differentiation of the parasite (Trypanosoma cruzi)
> 50 | < 2 | > 100 | > 20 | CC(C)(C)c1ccc(C(=O)N[C@@H](Cc2ccc(O)cc2)C(=O)N[C@]23CCC[C@H]2OCC3=O)cc1 [Example 1, (3aR, 6aR) 4-tert-Butyl-N-[2-(4-hydroxyphenyl)-1S-(3-oxo-hexahydrocyclopenta[b]furan-3a-ylcarbamoyl)-ethyl]benzamide] | – | –
– | – | – | – | O=C(Cn1ccnc1[N+](=O)[O-])NCc1ccccc1 [benznidazole] | ~60 | –
– | – | – | – | CC(NC(=O)C(Cc1ccccc1)NC(=O)OCc1ccccc1)C(=O)CF (stereo not drawn) [Z-Phe-Ala-FMK] | – | blocked replication and differentiation of the parasite
< 2 | > 50 | > 50 | > 25 | O=C(N[C@@H](CC1CCCCC1)C(=O)N[C@]12CCC[C@H]1OCC2=O)c1ccsc1 [Example 7, (3aR, 6aR) Thiophene-3-carboxylic acid [2-cyclohexyl-1S-(3-oxo-hexahydrocyclopenta[b]furan-3a-ylcarbamoyl)ethyl]amide] | – | –
> 25 | > 20 | < 2 | > 10 | CC(C)C[C@H](NC(=O)c1cc2ccccc2s1)C(=O)N[C@]12CCC[C@H]1OCC2=O [Example 6, (3aR, 6aR) Benzo[b]thiophene-2-carboxylic acid [3-methyl-1S-(3-oxo-hexahydrocyclopenta[b]furan-3a-ylcarbamoyl)butyl]amide] | – | –
